The NIST ThermoML archive (doi:10.1016/j.tca.2019.178383)

Columns and labels:
[1] = for surface tension liquid-gas: Maximal bubble pressure; for mass density: 100 kPa, Liquid, Vibrating tube method
[2] = xn = mol fraction of the nth substance listed; settings: x2 = 0; for surface tension liquid-gas: Maximal bubble pressure; for mass density: 100 kPa, Liquid, Vibrating tube method

CCn1cc[n+](CCOC)c1.O=S(=O)([O-])C(F)(F)F
[1]
Settings | mass density [kg/m3] | surface tension liquid-gas [mN/m]
288.15 K | 1348.94 | 36.3
293.15 K | 1344.66 | 36.1
298.15 K | 1340.41 | 35.8
303.15 K | 1336.17 | 35.5
308.15 K | 1331.96 | 35.3
313.15 K | 1327.77 | 35.1
318.15 K | 1323.6 | 34.9

CCO [ethanol]
[1]
Settings | mass density [kg/m3] | surface tension liquid-gas [mN/m]
288.15 K | 794.308 | 21.9
293.15 K | 790.041 | 21.4
298.15 K | 785.746 | 20.9
303.15 K | 781.43 | 20.5
308.15 K | 777.078 | 20
313.15 K | 772.688 | 19.5
318.15 K | 768.257 | 19

CCO [ethanol] + CCn1cc[n+](CCOC)c1.O=S(=O)([O-])C(F)(F)F
[2]
Settings | mass density [kg/m3] | surface tension liquid-gas [mN/m]
288.15 K | 794.308 | 21.9
293.15 K | 790.041 | 21.4
298.15 K | 785.746 | 20.9
303.15 K | 781.43 | 20.5
308.15 K | 777.078 | 20
313.15 K | 772.688 | 19.5
318.15 K | 768.257 | 19

CCCO [propan-1-ol]
[1]
Settings | mass density [kg/m3] | surface tension liquid-gas [mN/m]
288.15 K | 807.507 | 22.9
293.15 K | 803.519 | 22.5
298.15 K | 799.514 | 22.1
303.15 K | 795.48 | 21.8
308.15 K | 791.416 | 21.4
313.15 K | 787.306 | 21
318.15 K | 783.149 | 20.6

CCCO [propan-1-ol] + CCn1cc[n+](CCOC)c1.O=S(=O)([O-])C(F)(F)F
[2]
Settings | mass density [kg/m3] | surface tension liquid-gas [mN/m]
288.15 K | 807.507 | 22.9
293.15 K | 803.519 | 22.5
298.15 K | 799.514 | 22.1
303.15 K | 795.48 | 21.8
308.15 K | 791.416 | 21.4
313.15 K | 787.306 | 21
318.15 K | 783.149 | 20.6

CC(C)O [propan-2-ol]
[1]
Settings | mass density [kg/m3] | surface tension liquid-gas [mN/m]
288.15 K | 789.224 | 20.6
293.15 K | 785.088 | 20.2
298.15 K | 780.887 | 19.8
303.15 K | 776.617 | 19.5
308.15 K | 772.266 | 19.1
313.15 K | 767.829 | 18.7
318.15 K | 763.293 | 18.4

CC(C)O [propan-2-ol] + CCn1cc[n+](CCOC)c1.O=S(=O)([O-])C(F)(F)F
[2]
Settings | mass density [kg/m3] | surface tension liquid-gas [mN/m]
288.15 K | 789.224 | 20.6
293.15 K | 785.088 | 20.2
298.15 K | 780.887 | 19.8
303.15 K | 776.617 | 19.5
308.15 K | 772.266 | 19.1
313.15 K | 767.829 | 18.7
318.15 K | 763.293 | 18.4
